# Publication PMC8951016, “Computational Design and Biological Evaluation of Analogs of Lupin Peptide P5 Endowed with Dual PCSK9/HMG-CoAR Inhibiting Activity” (Pharmaceutics, 2022)
# Assays:
# LDL uptake, HepG2 cells = assay: Fluorescent LDL uptake in HepG2 cells in the presence of PCSK9; assay type: cell-based, human; conditions: 50 µM + PCSK9 4 µg/mL; Figure 3C
# Protocol: HepG2 cells (3 × 10^4/well) were seeded in 96-well plates and kept in complete growth medium for 2 days before treatment. The third day, cells were washed with PBS and then starved overnight (O/N) in DMEM without FBS and antibiotics. After starvation, they were treated with 4.0 μg/mL PCSK9 and 4.0 μg/mL PCSK9 + P5 and P5 analogs peptides (50 µM), and vehicle (H2O) for 2 h with at 37 °C under 5% CO2 atmosphere. Fluorescent LDL-uptake was finally assessed following optimized protocol. See Supplementary Materials for further details.
# (§1) PBS for 1.5 h at RT. LDLR primary antibody solution (1:3000 in 5% BSA in PBS, 25 µL/well) was incubated O/N at +4 °C. […] The reaction was stopped with 2 M H2SO4 and then the absorbance at 450 nm was measured using the microplate reader Synergy H1 (Winoo-ski, VT, USA). After the read, cells were stained by adding 1 X Janus Green stain, incubat-ing for 5 min at RT. […]
# (§2) Afterward 100 µL 0.5 M HCl for well were added and incubated for 10 min. After 10 sec-onds shaking, the OD at 595 nm was measured using the microplate reader Synergy H1 […]
# (§3) Fluorescent LDL Uptake. […] The degree of LDL uptake was measured using the Synergy H1 fluo-rescent plate reader (Winooski, VT, USA) (excitation and emission wavelengths 540 and 570 nm, respectively). Fluorescent LDL-uptake was finally assessed following optimized […]
# LDLR [1] = assay: Western blot, LDLR protein level in HepG2; assay type: cell-based, human; conditions: 50 µM, 24 h
# Protocol: (§4) A total of 1.5 × 10^5 HepG2 cells/well (24-well plate) were treated with 50 μM of P5 and P5 analogs for 24 h. Immunoblotting experiments were performed using optimized protocol. See Supplementary Materials for further details.
# as §1, with “°C. Subsequently, the primary antibody solution was discarded and each sample was washed 5 times with 100 µL/well of PBS (each wash was for 5 min at RT). Goat anti-rabbit Ig-HRP secondary antibody solution (Santa Cruz) (1:6000 in 5% BSA in PBS, 50 µL/well), was added and incubated 1 h at RT.” for “°C.”
# as §2, §3
# PCSK9 = assay: Western blot, PCSK9 protein level in HepG2; assay type: cell-based, human; conditions: active at 50 µM in hepatic cells vs 250 µM; PCSK9 protein level and secretion
# Protocol: as §4
# as §1, with “°C. Subsequently, the primary antibody solution was discarded and each sample was washed 5 times with 100 µL/well of PBS (each wash was for 5 min at RT). Goat anti-rabbit Ig-HRP secondary antibody solution (Santa Cruz) (1:6000 in 5% BSA in PBS, 50 µL/well), was added and incubated 1 h at RT.” for “°C.”
# as §2, §3
# PCSK9-LDLR = molecular target: T1, PCSK9-LDLR (Homo sapiens, UniProt Q8NBP7); conditions: parent peptide; read-out: IC50, PCSK9-LDLR binding (P5); cited from earlier work
# T1 construct: purchased CycLex Co., Nagano, Japan (CircuLex)
# T1 sequence (Q8NBP7 153-692): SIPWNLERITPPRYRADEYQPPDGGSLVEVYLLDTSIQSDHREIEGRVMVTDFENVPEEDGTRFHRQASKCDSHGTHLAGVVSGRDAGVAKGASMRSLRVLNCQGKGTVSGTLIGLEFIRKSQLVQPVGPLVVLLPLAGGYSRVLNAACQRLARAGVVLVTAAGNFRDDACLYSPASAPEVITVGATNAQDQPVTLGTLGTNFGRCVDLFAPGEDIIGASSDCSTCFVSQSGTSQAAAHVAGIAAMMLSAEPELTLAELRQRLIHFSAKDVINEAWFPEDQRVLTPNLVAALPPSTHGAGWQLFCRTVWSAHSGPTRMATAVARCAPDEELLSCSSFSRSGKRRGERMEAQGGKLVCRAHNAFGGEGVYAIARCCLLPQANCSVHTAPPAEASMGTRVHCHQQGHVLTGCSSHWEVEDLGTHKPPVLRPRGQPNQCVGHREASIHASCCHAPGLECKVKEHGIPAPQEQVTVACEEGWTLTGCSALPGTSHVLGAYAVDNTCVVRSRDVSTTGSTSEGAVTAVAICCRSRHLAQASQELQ
# T1 sequence (Q8NBP7 31-152 partner limits assumed): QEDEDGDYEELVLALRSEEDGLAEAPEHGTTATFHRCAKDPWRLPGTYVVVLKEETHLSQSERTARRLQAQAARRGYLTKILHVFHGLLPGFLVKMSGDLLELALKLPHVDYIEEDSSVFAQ
# LDLR [2] = tested on: LDLR; design: method as in 3 sources, ref 48 = [48]; doi:10.1111/jfbc.12757; 48. Lammi C. Zanoni C. Arnoldi A. Aiello G. […] (P3), a peptide from lupin protein, absorbed by Caco-2 cells, modulates cholesterol metabolism in HepG2 cells via SREBP-1 activation J. Food B ||| ref 22 = [22]; doi:10.1016/j.jff.2017.02.009; 22. Zanoni C. Aiello G. Arnoldi A. Lammi C. Investigations on the hypocholesterolaemic activity of […] and LTFPGSAED, two peptides from lupin β-conglutin: Focus on LDLR and PCSK9 pathways J. Fu ||| ref 24 = [24]; PMID 33808034; doi:10.3390/nu13030863; 24. Lammi C. Aiello G. Bollati C. Li J. Bartolomei M. Ranaldi G. Ferruzza S. Fassi E.M.A. Grazioso G. Sambuy Y. Trans-Epithelial Transport, Metabolism, and Biological Activity Assessment of the Multi-; conditions: through activation of SREBP-2; cited from earlier work
# [3] = tested on: human intestinal Caco-2 cells; conditions: cited from earlier work
sequence,measurement,setting,value
LILPKHSDAD [Peptide P5],ability to absorb LDL in presence of PCSK9,"LDL uptake, HepG2 cells",improved
same,"LDLR protein level (words, P5)",LDLR [1],augmentation of the LDLR protein levels
same,fold potency vs YVVNPDNNEN,PCSK9,5 -fold
same,IC50,PCSK9-LDLR,1.6 µM
same,"LDLR protein level in HepG2 (P5, earlier work, words)",LDLR [2],increases the LDLR protein level
same,metabolism during Caco-2 transport,[3],"partially metabolized in a breakdown fragment (LPKHSDAD, P5-met)"
same,transport by differentiated Caco-2 cells,[3],successfully transported
